Like-named read-outs stand apart in the source and are kept apart here. Starred links: 1 amine or outer side, 2 acyl side, 3 side chain; linkers in the order of their positions; H or OH if unused. Non-standard residues stand in square brackets, D forms with d. Residues, ends and D or L forms follow the SMILES beside them. *: point of attachment. Phe(4-CH2SO3H) = N[C@@H](Cc1ccc(CS(=O)(=O)O)cc1)C(=O)O; C20 diacid = O=C(O)CCCCCCCCCCCCCCCCCCC(=O)*; sY = N[C@@H](Cc1ccc(OS(=O)(=O)O)cc1)C(=O)O; C18 diacid = O=C(O)CCCCCCCCCCCCCCCCC(=O)*; γGlu = O=C(O)[C@H](CCC(=O)[*:2])N[*:1]; 1Nal = N[C@@H](Cc1cccc2ccccc12)C(=O)O; C14 diacid = O=C(O)CCCCCCCCCCCCC(=O)*; NMeF = CN[C@@H](Cc1ccccc1)C(=O)O; dNMeD = CN[C@H](CC(=O)O)C(=O)O; Nle = CCCC[C@H](N)C(=O)O; AEEA = NCCOCCOCC(=O)O
Legend:
[1] = target: T1, human cholecystokinin-2 receptor (CCK-2R) (Homo sapiens, UniProt P32239); test: In vitro receptor binding to CCK-2R, SPA displacement of [125I]-CCK-8s from plasma membranes
T1 construct: host or cells: 1321-N1 cells (plasma membranes prepared by Evotec AG Hamburg)
T1 sequence (P32239 1-447): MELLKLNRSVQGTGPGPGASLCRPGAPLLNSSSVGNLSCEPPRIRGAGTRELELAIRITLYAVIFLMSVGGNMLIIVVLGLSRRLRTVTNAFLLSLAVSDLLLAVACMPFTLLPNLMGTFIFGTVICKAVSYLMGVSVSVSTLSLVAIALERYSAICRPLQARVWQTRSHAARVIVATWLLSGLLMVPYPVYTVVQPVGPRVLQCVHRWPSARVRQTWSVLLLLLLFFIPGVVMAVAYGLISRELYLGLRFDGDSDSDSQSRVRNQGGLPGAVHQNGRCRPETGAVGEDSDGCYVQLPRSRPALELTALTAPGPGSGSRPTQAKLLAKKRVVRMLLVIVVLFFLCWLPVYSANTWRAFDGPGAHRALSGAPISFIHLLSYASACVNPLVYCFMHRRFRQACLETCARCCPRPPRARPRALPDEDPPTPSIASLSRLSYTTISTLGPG

[2] = target: T1, human cholecystokinin-2 receptor (CCK-2R); test: In vitro potency on CCK-2R, whole cell functional assay (IP1 accumulation, IP-One HTRF); format: cell-based
[3] = target: T2, human cholecystokinin-1 receptor (CCK-1R) (Homo sapiens, UniProt P32238); test: In vitro potency on CCK-1R, whole cell functional assay (IP1 accumulation, IP-One HTRF); format: cell-based
T2 construct: host or cells: 1321-N1 cells
T2 sequence (P32238 1-428): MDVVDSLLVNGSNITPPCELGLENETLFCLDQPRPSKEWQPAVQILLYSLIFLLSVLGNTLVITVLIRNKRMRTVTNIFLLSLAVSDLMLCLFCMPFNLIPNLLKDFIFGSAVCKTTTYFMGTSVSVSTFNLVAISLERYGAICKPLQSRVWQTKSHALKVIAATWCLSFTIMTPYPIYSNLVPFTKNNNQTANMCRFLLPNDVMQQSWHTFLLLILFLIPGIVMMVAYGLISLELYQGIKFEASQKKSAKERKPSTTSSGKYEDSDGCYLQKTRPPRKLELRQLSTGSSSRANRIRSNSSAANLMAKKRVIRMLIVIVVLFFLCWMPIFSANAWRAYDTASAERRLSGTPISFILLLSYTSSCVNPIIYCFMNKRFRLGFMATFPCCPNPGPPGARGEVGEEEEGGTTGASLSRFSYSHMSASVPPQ

[4] = displacement of [125I]-CCK-8s, plasma membranes of 1321-N1 cells expressing CCK-2R, highest dose tested 1×10^7 pM, read-out: IC50 (CCK-2R)
[5] = 1321-N1 cells stably expressing CCK-2R, IP1 accumulation, highest dose tested 1×10^6 pM, read-out: EC50 (CCK-2R)

IC50 [1, 4] [µM] | EC50 [2, 5] [µM] | Compound | further results
1 | 0.18 | CCCC[C@H](NC(=O)[C@H](Cc1ccc(OS(=O)(=O)O)cc1)NC(=O)[C@H](CC(=O)O)NC(=O)COCCOCCNC(=O)COCCOCCNC(=O)CC[C@H](NC(=O)CCCCCCCCCCCCCCCCC(=O)O)C(=O)O)C(=O)NCC(=O)N[C@@H](Cc1c[nH]c2ccccc12)C(=O)N[C@@H](CCCC)C(=O)N(C)[C@H](CC(=O)O)C(=O)N[C@@H](Cc1cccc2ccccc12)C(N)=O [Example 2, 2-[2-[2-[[2-[2-[2-[[(4S)-4-Carboxy-4-(17-carboxyheptadecanoylamino)butanoyl]amino]ethoxy]ethoxy]acetyl]amino]ethoxy]ethoxy]acetyl-Asp-sTyr-Nle-Gly-Trp-Nle-DMeAsp-1Nal-amide] ({C18 diacid-γGlu-AEEA-AEEA}-D[sY][Nle]GW[Nle][dNMeD][1Nal]-NH2) | 
 |  | CCCC[C@H](NC(=O)[C@H](Cc1ccc(CS(=O)(=O)O)cc1)NC(=O)[C@H](CC(=O)O)NC(=O)COCCOCCNC(=O)COCCOCCNC(=O)CC[C@H](NC(=O)CCCCCCCCCCCCCCCCC(=O)O)C(=O)O)C(=O)NCC(=O)N[C@@H](Cc1c[nH]c2ccccc12)C(=O)N[C@@H](CCCC)C(=O)N(C)[C@H](CC(=O)O)C(=O)N(C)[C@@H](Cc1ccccc1)C(N)=O [Example 3, 2-[2-[2-[[2-[2-[2-[[(4S)-4-Carboxy-4-(17-carboxyheptadecanoylamino)butanoyl]amino]ethoxy]ethoxy]acetyl]amino]ethoxy]ethoxy]acetyl-Asp-Phe(4-sulfomethyl)-Nle-Gly-Trp-Nle-DMeAsp-MePhe-amide] ({C18 diacid-γGlu-AEEA-AEEA}-D[Phe(4-CH2SO3H)][Nle]GW[Nle][dNMeD][NMeF]-NH2) | IC50 [1]: > 10 µM; EC50 [2]: > 1 µM; EC50 [3]: 0.00031 µM
 |  | CCCC[C@H](NC(=O)[C@H](Cc1c[nH]c2ccccc12)NC(=O)CNC(=O)[C@H](CC(C)C)NC(=O)[C@H](Cc1ccc(OS(=O)(=O)O)cc1)NC(=O)[C@H](CC(=O)O)NC(=O)[C@H](CO)NC(=O)[C@H](CO)NC(=O)CNC(=O)[C@H](CO)NC(=O)[C@H](CO)NC(=O)CNC(=O)CCCCCCCCCCCCCCCCC(=O)O)C(=O)N(C)[C@H](CC(=O)O)C(=O)N(C)[C@@H](Cc1ccccc1)C(N)=O [Example 29, 17-Carboxyheptadecanoyl-Gly-Ser-Ser-Gly-Ser-Ser-Asp-sTyr-Leu-Gly-Trp-Nle-DMeAsp-MePhe-amide] ({C18 diacid}-GSSGSSD[sY]LGW[Nle][dNMeD][NMeF]-NH2) | CCK-1R selectivity (EC50 (CCK-2R)/EC50 (CCK-1R)) ([3]; ratio of functional EC50 values, >1 = preference for CCK-1R): 28
> 10 | > 1 | CCCC[C@H](NC(=O)[C@H](Cc1c[nH]c2ccccc12)NC(=O)CNC(=O)[C@H](CC(C)C)NC(=O)[C@H](Cc1ccc(CS(=O)(=O)O)cc1)NC(=O)[C@H](CC(=O)O)NC(=O)COCCOCCNC(=O)COCCOCCNC(=O)CC[C@H](NC(=O)CCCCCCCCCCCCC(=O)O)C(=O)O)C(=O)N(C)[C@H](CC(=O)O)C(=O)N(C)[C@@H](Cc1ccccc1)C(N)=O [Example 34, 2-[2-[2-[[2-[2-[2-[[(4S)-4-Carboxy-4-(13-carboxytridecanoylamino)butanoyl]amino]ethoxy]ethoxy]acetyl]amino]ethoxy]ethoxy]acetyl-Asp-Phe(4-sulfomethyl)-Leu-Gly-Trp-Nle-DMeAsp-MePhe-amide] ({C14 diacid-γGlu-AEEA-AEEA}-D[Phe(4-CH2SO3H)]LGW[Nle][dNMeD][NMeF]-NH2) | EC50 ([3]; 1321-N1 cells stably expressing CCK-1R, IP1 accumulation, average of min. three replicates, read-out: EC50 (CCK-1R)): 0.00021 µM
> 10 | > 1 | CCCC[C@H](NC(=O)[C@H](Cc1c[nH]c2ccccc12)NC(=O)CNC(=O)[C@H](CC(C)C)NC(=O)[C@H](Cc1ccc(CS(=O)(=O)O)cc1)NC(=O)[C@H](CC(=O)O)NC(=O)COCCOCCNC(=O)COCCOCCNC(=O)CC[C@H](NC(=O)CCCCCCCCCCCCCCCCCCC(=O)O)C(=O)O)C(=O)N(C)[C@H](CC(=O)O)C(=O)N(C)[C@@H](Cc1ccccc1)C(N)=O [Example 35, 2-[2-[2-[[2-[2-[2-[[(4S)-4-Carboxy-4-(19-carboxynonadecanoylamino)butanoyl]amino]ethoxy]ethoxy]acetyl]amino]ethoxy]ethoxy]acetyl-Asp-Phe(4-sulfomethyl)-Leu-Gly-Trp-Nle-DMeAsp-MePhe-amide] ({C20 diacid-γGlu-AEEA-AEEA}-D[Phe(4-CH2SO3H)]LGW[Nle][dNMeD][NMeF]-NH2) | 
